How the values were obtained:
[1] = DRUGMATRIX: Serotonin (5-Hydroxytryptamine) 5-HT3 radioligand binding (ligand: [3H] GR-65630); type: cell membranes, Membrane; conditions: hek293; Not Active = under 50% inhibition at 10 µM
[2] = DRUGMATRIX: Tumor Necrosis Factor (TNF), Non-Selective radioligand binding (ligand: [125I] TNF-alpha); type: cell membranes, Membrane; conditions: u-937; Not Active = under 50% inhibition at 10 µM
[3] = target: C-C chemokine receptor type 2 (Homo sapiens, UniProt P41597); type: cell membranes, CHO-K1, Membrane; conditions: cho-k1; note: in other assays of this panel Not Active means under 50% inhibition at 10 µM
[4] = target: T1, Muscarinic acetylcholine receptor M2 (Homo sapiens, UniProt P08172); type: cell membranes, CHO-K1, Membrane; conditions: cho-k1; note: in other assays of this panel Not Active means under 50% inhibition at 10 µM
T1 sequence (P08172 whole entry): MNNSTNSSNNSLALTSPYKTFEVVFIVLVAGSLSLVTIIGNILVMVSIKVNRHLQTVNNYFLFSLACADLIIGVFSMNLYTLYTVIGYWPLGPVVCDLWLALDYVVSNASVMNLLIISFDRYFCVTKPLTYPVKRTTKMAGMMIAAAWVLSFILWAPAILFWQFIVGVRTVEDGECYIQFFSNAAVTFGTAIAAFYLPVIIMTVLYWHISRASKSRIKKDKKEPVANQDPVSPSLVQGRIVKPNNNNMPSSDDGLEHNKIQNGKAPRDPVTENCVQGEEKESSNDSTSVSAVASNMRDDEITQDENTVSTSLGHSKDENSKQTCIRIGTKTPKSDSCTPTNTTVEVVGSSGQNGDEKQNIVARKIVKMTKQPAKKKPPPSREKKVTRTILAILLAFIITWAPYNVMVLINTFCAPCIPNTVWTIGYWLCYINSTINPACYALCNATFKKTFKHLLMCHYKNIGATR

[5] = target: cGMP-specific 3',5'-cyclic phosphodiesterase (Homo sapiens, UniProt O76074); test: DRUGMATRIX: Phosphodiesterase PDE5 enzyme inhibition (substrate: [3H]cGMP + cGMP); type: tissue-based; conditions: platelet; Not Active = under 50% inhibition at 10 µM
Adenosine receptor A3 = target: T2, Adenosine receptor A3 (Homo sapiens, UniProt P0DMS8); type: cell membranes, CHO-K1, Membrane;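 note: radioligand binding assay with AB-MECA serving as the labeled ligand; in other assays of this panel Not Active means under 50% inhibition at 10 µM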
T2 sequence (P0DMS8 whole entry): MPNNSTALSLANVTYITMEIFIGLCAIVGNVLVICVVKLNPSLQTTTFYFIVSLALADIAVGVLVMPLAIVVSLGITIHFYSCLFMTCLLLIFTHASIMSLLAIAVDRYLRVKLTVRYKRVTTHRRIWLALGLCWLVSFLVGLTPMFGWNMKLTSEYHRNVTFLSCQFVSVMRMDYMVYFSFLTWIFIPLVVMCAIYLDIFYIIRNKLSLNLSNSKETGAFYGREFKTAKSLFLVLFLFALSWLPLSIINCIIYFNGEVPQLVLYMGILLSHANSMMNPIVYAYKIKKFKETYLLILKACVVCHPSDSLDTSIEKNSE

Cytochrome P450 2E1 = Cytochrome P450 2E1 (Homo sapiens, UniProt P05181); conditions: bti-tn-5b1-4; note: in other assays of this panel Not Active means under 50% inhibition at 10 µM
Sequence of Cytochrome P450 2E1 (P05181 whole entry): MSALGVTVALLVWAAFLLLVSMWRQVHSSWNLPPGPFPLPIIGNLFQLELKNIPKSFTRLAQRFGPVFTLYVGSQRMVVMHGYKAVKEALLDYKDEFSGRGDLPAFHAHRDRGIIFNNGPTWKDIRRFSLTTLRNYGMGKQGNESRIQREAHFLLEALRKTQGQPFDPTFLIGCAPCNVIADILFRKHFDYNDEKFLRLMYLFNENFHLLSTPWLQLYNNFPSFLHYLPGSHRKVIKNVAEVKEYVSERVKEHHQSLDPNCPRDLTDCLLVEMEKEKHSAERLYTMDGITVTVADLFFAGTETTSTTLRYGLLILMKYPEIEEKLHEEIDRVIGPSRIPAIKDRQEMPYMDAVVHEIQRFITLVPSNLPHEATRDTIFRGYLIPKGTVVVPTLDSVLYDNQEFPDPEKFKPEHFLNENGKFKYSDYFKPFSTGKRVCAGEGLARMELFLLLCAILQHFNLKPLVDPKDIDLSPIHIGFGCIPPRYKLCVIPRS

Sequence of C-C chemokine receptor type 2 (P41597 whole entry): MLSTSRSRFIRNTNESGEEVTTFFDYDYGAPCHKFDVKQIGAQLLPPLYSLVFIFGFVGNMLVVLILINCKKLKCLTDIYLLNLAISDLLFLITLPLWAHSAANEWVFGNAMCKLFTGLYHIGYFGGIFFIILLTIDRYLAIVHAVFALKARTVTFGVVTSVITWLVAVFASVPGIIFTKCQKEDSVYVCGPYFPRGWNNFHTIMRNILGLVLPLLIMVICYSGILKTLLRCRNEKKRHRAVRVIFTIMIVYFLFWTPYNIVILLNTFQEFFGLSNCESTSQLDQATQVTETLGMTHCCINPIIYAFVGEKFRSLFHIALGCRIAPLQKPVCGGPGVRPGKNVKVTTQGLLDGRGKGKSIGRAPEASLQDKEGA

In the case of OCCO [ETHYLENE GLYCOL], the IC50 [1] is reported as “Not Active”, the Ki [1] is reported as “Not Active” and the IC50 [2] is reported as “Not Active”. The Ki [2] was “Not Active”, the IC50 [3] was “Not Active” and the IC50 [4] was “Not Active”. The IC50 [5] was “Not Active”, the IC50 (Adenosine receptor A3; cho-k1) was “Not Active” and the IC50 (Cytochrome P450 2E1) was “Not Active”. The Ki (Cytochrome P450 2E1) was “Not Active”.

With CC(=O)OCC(CCn1cnc2cnc(N)nc21)COC(C)=O [FAMCICLOVIR] the IC50 [1] was “Not Active”, the Ki [1] was “Not Active” and the IC50 [2] was “Not Active”. The Ki [2] was “Not Active”, the IC50 [3] was “Not Active” and the IC50 [4] was “Not Active”. The IC50 [5] was “Not Active”, the IC50 (Adenosine receptor A3; cho-k1) was “Not Active” and the IC50 (Cytochrome P450 2E1) was “Not Active”. The Ki (Cytochrome P450 2E1) was “Not Active”.

For O=C(O)Cc1ccc(-c2ccccc2)cc1 [FELBINAC], the IC50 [1] was “Not Active”, the Ki [1] was “Not Active” and the IC50 [2] was “Not Active”. For the same compound, the Ki [2] was “Not Active”, the IC50 [3] was “Not Active” and the IC50 [4] was “Not Active”. For the same compound, the IC50 [5] was “Not Active”, the IC50 (Adenosine receptor A3; cho-k1) was “Not Active” and the IC50 (Cytochrome P450 2E1) was “Not Active”. For the same compound, the Ki (Cytochrome P450 2E1) was “Not Active”.

For CCOC(=O)C1=C(C)NC(C)=C(C(=O)OC)C1c1cccc(Cl)c1Cl (stereo unspecified) [FELODIPINE], the IC50 [1] was “Not Active”, the Ki [1] was “Not Active” and the IC50 [2] was “Not Active”. The Ki [2] was “Not Active”, the IC50 [3] was “Not Active” and the IC50 [4] was “Not Active”. For the same compound, the IC50 [5] was “Not Active”, the IC50 (Adenosine receptor A3; read-out: IC50) was 1060 nM and the Ki (Adenosine receptor A3; read-out: Ki) was 597 nM. For the same compound, the IC50 (Cytochrome P450 2E1) was “Not Active” and the Ki (Cytochrome P450 2E1) was “Not Active”.

With CC(C(=O)O)c1ccc(-c2ccccc2)c(F)c1 (stereo unspecified) [FLURBIPROFEN] the IC50 [1] was “Not Active”, the Ki [1] was “Not Active” and the IC50 [2] was “Not Active”. The Ki [2] was “Not Active”, the IC50 [3] was “Not Active” and the IC50 [4] was “Not Active”. The IC50 [5] was “Not Active”, the IC50 (Adenosine receptor A3; cho-k1) was “Not Active” and the IC50 (Cytochrome P450 2E1) was “Not Active”. For the same compound, the Ki (Cytochrome P450 2E1) was “Not Active”.

In the case of NC[C@@H]1O[C@H](O[C@H]2[C@@H](O)[C@H](O[C@@H]3[C@@H](O)[C@H](N)C[C@H](N)[C@H]3O[C@H]3O[C@H](CN)[C@@H](O)[C@H](O)[C@H]3N)O[C@@H]2CO)[C@H](N)[C@@H](O)[C@@H]1O [FRAMYCETIN], the IC50 [1] is reported as “Not Active”, the Ki [1] is reported as “Not Active” and the IC50 [2] is reported as “Not Active”. The Ki [2] was “Not Active”, the IC50 [3] was “Not Active” and the IC50 [4] was “Not Active”. For the same compound, the IC50 [5] was “Not Active”, the IC50 (Adenosine receptor A3; cho-k1) was “Not Active” and the IC50 (Cytochrome P450 2E1) was “Not Active”. The Ki (Cytochrome P450 2E1) was “Not Active”.

For C[C@H]([C@](O)(Cn1cncn1)c1ccc(F)cc1F)S(C)(=O)=O [GENACONAZOLE], the IC50 [1] was “Not Active”, the Ki [1] was “Not Active” and the IC50 [2] was “Not Active”. The Ki [2] was “Not Active”, the IC50 [3] was “Not Active” and the IC50 [4] was “Not Active”. For the same compound, the IC50 [5] was “Not Active”, the IC50 (Adenosine receptor A3; cho-k1) was “Not Active” and the IC50 (Cytochrome P450 2E1) was “Not Active”. For the same compound, the Ki (Cytochrome P450 2E1) was “Not Active”.

In the case of Cc1c(F)c(N2CCNC(C)C2)cc2c1c(=O)c(C(=O)O)cn2C1CC1 (stereo unspecified) [GREPAFLOXACIN], the IC50 [1] is reported as “Not Active”, the Ki [1] is reported as “Not Active” and the IC50 [2] is reported as “Not Active”. The Ki [2] was “Not Active”, the IC50 [3] was “Not Active” and the IC50 [4] was “Not Active”. For the same compound, the IC50 [5] was “Not Active”, the IC50 (Adenosine receptor A3; cho-k1) was “Not Active” and the IC50 (Cytochrome P450 2E1) was “Not Active”. The Ki (Cytochrome P450 2E1) was “Not Active”.

With N=C(N)N/N=C/c1c(Cl)cccc1Cl [GUANABENZ] the IC50 [1] was “Not Active”, the Ki [1] was “Not Active” and the IC50 [2] was “Not Active”. The Ki [2] was “Not Active”, the IC50 [3] was “Not Active” and the IC50 [4] was “Not Active”. For the same compound, the IC50 [5] was “Not Active”, the IC50 (Adenosine receptor A3; cho-k1) was “Not Active” and the IC50 (Cytochrome P450 2E1) was “Not Active”. The Ki (Cytochrome P450 2E1) was “Not Active”.

With C[C@]12CCC(=O)C=C1CC[C@@H]1[C@@H]2[C@@H](O)C[C@@]2(C)[C@H]1CC[C@]2(O)C(=O)CO [HYDROCORTISONE] the IC50 [1] was “Not Active”, the Ki [1] was “Not Active” and the IC50 [2] was “Not Active”. For the same compound, the Ki [2] was “Not Active”, the IC50 [3] was “Not Active” and the IC50 [4] was “Not Active”. For the same compound, the IC50 [5] was “Not Active”, the IC50 (Adenosine receptor A3; cho-k1) was “Not Active” and the IC50 (Cytochrome P450 2E1) was “Not Active”. The Ki (Cytochrome P450 2E1) was “Not Active”.

For NC[C@H]1O[C@H](O[C@H]2[C@H](O)[C@@H](O[C@H]3O[C@H](CO)[C@@H](O)[C@H](N)[C@H]3O)[C@H](N)C[C@@H]2N)[C@H](O)[C@@H](O)[C@@H]1O [KANAMYCIN], the IC50 [1] was “Not Active”, the Ki [1] was “Not Active” and the IC50 [2] was “Not Active”. The Ki [2] was “Not Active”, the IC50 [3] was “Not Active” and the IC50 [4] was “Not Active”. The IC50 [5] was “Not Active”, the IC50 (Adenosine receptor A3; cho-k1) was “Not Active” and the IC50 (Cytochrome P450 2E1) was “Not Active”. For the same compound, the Ki (Cytochrome P450 2E1) was “Not Active”.

For CC[C@H](C)C(=O)O[C@H]1C[C@@H](C)C=C2C=C[C@H](C)[C@H](CC[C@@H]3C[C@@H](O)CC(=O)O3)[C@H]21 [LOVASTATIN], the IC50 [1] was “Not Active”, the Ki [1] was “Not Active” and the IC50 [2] was “Not Active”. The Ki [2] was “Not Active”, the IC50 [3] was “Not Active” and the IC50 [4] was “Not Active”. The IC50 [5] was “Not Active”, the IC50 (Adenosine receptor A3; cho-k1) was “Not Active” and the IC50 (Cytochrome P450 2E1) was “Not Active”. The Ki (Cytochrome P450 2E1) was “Not Active”.
